Nine compounds from PubChem BioAssay (NCI) can be followed below.

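All cell lines were grown in 96-well plates and treated with compound for 48 hours. GI50 marks 50% less growth. TGI: total growth inhibition.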

Some test systems named below: TK-10 renal; SK-MEL-28 melanoma; CAKI-1 renal; U251 CNS; HT29 colon; LOX IMVI melanoma; SK-OV-3 ovarian; HCC-2998 colon; 786-0 renal; NCI/ADR-RES ovarian.
Holding throughout (test): NCI tumour cell line growth inhibition, 48 h

Consider `CCN(CC)CCn1ccc(=O)c2cc3c(=O)ccn(CCN(CC)CC)c3c(C)c21`, for which the TGI turned out to be 26.7 µM in the assay on TK-10 renal; 35.1 µM with SK-MEL-28 melanoma; 18.3 µM with CAKI-1 renal; 19.7 µM with U251 CNS; 12.7 µM in the assay on HT29 colon; 7.55 µM in the assay with LOX IMVI melanoma. For the same compound, the TGI with SK-OV-3 ovarian amounted to 15.9 µM; with HCC-2998 colon it was 2.93 µM; in the assay with 786-0 renal it was 8.56 µM; in the assay on NCI/ADR-RES ovarian it was 5.2 µM.
In the case of `CCCCOc1ccc(NC(N)=Nc2ccc(Cl)cc2)cc1`, the TGI amounted to 18 µM in the assay on TK-10 renal; 26.7 µM in the assay with SK-MEL-28 melanoma; 21.5 µM in the assay on U251 CNS; 11.3 µM in the assay with HT29 colon; 15.1 µM with LOX IMVI melanoma; 22.7 µM with SK-OV-3 ovarian. In addition, the TGI in the assay with HCC-2998 colon was found to be 2.64 µM; in the assay with 786-0 renal, 23.2 µM; in the assay on NCI/ADR-RES ovarian, 18.9 µM.
Regarding `COc1c2c(c3c(c1CCC(=O)O)OC(C)(C)C=C3)OC(C)(C)C=C2`, the TGI in the assay with TK-10 renal, in the assay on SK-MEL-28 melanoma, with CAKI-1 renal, in the assay with U251 CNS, in the assay with HT29 colon and in the assay on LOX IMVI melanoma was more than 100 µM in each case. The TGI with SK-OV-3 ovarian, with HCC-2998 colon, in the assay with 786-0 renal and in the assay with NCI/ADR-RES ovarian was more than 100 µM each time.
With `COC(=O)/C=C/C=C(c1ccccc1)c1ccccc1`, the GI50 with TK-10 renal was 20.3 µM; with SK-MEL-28 melanoma, 7.84 µM; in the assay with CAKI-1 renal it was 3.05 µM; with U251 CNS it was 3.6 µM; with HT29 colon, 3.85 µM; with LOX IMVI melanoma, 5.87 µM. The GI50 in the assay on SK-OV-3 ovarian was 5.93 µM; with HCC-2998 colon, 28.8 µM; in the assay on 786-0 renal, 4.32 µM; with NCI/ADR-RES ovarian it was 3.12 µM. For the same compound, the TGI in the assay with TK-10 renal is more than 100 µM; in the assay with SK-MEL-28 melanoma, more than 100 µM; with CAKI-1 renal, 10.4 µM; in the assay on U251 CNS it was 29.3 µM; in the assay with HT29 colon, more than 100 µM; in the assay with LOX IMVI melanoma, 21.7 µM. Further, the TGI was 48.9 µM in the assay with SK-OV-3 ovarian, more than 100 µM in the assay with HCC-2998 colon, 58.5 µM in the assay on 786-0 renal and 17 µM with NCI/ADR-RES ovarian.
Consider `COc1cccc(/C=C/C(=O)c2cccc(Nc3nc(Nc4ccccc4)nc(Nc4ccccc4)n3)c2)c1`, for which the GI50 in the assay with TK-10 renal is 41.5 µM; with SK-MEL-28 melanoma, 20.8 µM; with CAKI-1 renal, more than 22.4 µM; with U251 CNS it was 9.5 µM; in the assay with HT29 colon, 4.36 µM; in the assay with LOX IMVI melanoma, 7.04 µM. The GI50 in the assay on SK-OV-3 ovarian is more than 78.5 µM; with HCC-2998 colon it was 7.35 µM; with 786-0 renal it was 18.6 µM; in the assay with NCI/ADR-RES ovarian, 27.3 µM. The TGI with TK-10 renal is more than 93.1 µM; in the assay with SK-MEL-28 melanoma it was 56.2 µM; in the assay on CAKI-1 renal, more than 60.8 µM; in the assay with U251 CNS it was more than 73.8 µM; in the assay with HT29 colon, more than 81.7 µM; in the assay on LOX IMVI melanoma, 21.3 µM. Also, the TGI was more than 100 µM in the assay with SK-OV-3 ovarian, 26.2 µM with HCC-2998 colon, more than 65.5 µM in the assay with 786-0 renal and more than 100 µM in the assay with NCI/ADR-RES ovarian.
Take `Nc1c(C(=O)Nc2cccc([N+](=O)[O-])c2)sc2nc3c(cc12)C(O)CCC3` (stereo not given): the GI50 in the assay on TK-10 renal was 15.9 µM; in the assay on SK-MEL-28 melanoma it was 16.9 µM; with CAKI-1 renal, more than 100 µM; in the assay with U251 CNS it was 6.3 µM; with HT29 colon, 2.89 µM; in the assay on LOX IMVI melanoma it was 7.61 µM. Besides, the GI50 in the assay on SK-OV-3 ovarian is 10.2 µM; in the assay on HCC-2998 colon, more than 100 µM; in the assay with 786-0 renal, 13.5 µM; with NCI/ADR-RES ovarian it was 4.72 µM. Also, the TGI in the assay with TK-10 renal is more than 100 µM; in the assay with SK-MEL-28 melanoma, more than 100 µM; in the assay with CAKI-1 renal it was more than 100 µM; in the assay on U251 CNS it was more than 72.4 µM; in the assay on HT29 colon, more than 100 µM; in the assay with LOX IMVI melanoma, more than 100 µM. The TGI with SK-OV-3 ovarian, with HCC-2998 colon, in the assay with 786-0 renal and with NCI/ADR-RES ovarian was more than 100 µM in each case.
As for `CC1SC(c2c(Cl)cccc2Cl)N(NC(=O)c2[nH]c3ccc(F)cc3c2-c2ccccc2)C1=O` (stereo not given), the GI50 with TK-10 renal is 2.56 µM; in the assay on SK-MEL-28 melanoma it was 3.57 µM; in the assay with CAKI-1 renal, 1.83 µM; in the assay with U251 CNS it was 1.78 µM; in the assay with HT29 colon, 2.96 µM; in the assay on LOX IMVI melanoma it was 1.71 µM. In addition, the GI50 is 1.95 µM with SK-OV-3 ovarian, 25 µM with HCC-2998 colon, 2.14 µM with 786-0 renal and 2.05 µM in the assay on NCI/ADR-RES ovarian. Moreover, the TGI in the assay on TK-10 renal was 7.12 µM; in the assay on SK-MEL-28 melanoma, 17.2 µM; in the assay on CAKI-1 renal, 4.85 µM; with U251 CNS, 3.51 µM; with HT29 colon, 10.8 µM; in the assay with LOX IMVI melanoma, 3.35 µM. The TGI was 4.2 µM in the assay with SK-OV-3 ovarian, more than 100 µM in the assay on HCC-2998 colon, 4.44 µM in the assay with 786-0 renal and 4.8 µM in the assay with NCI/ADR-RES ovarian.
As for `C=C1C(=O)O[C@H]2[C@H]1CC/C(COC(=O)NCc1ccccc1OC)=C\CC[C@@]1(C)O[C@@H]21`, the GI50 is 1.79 µM in the assay with TK-10 renal; 1.52 µM in the assay with SK-MEL-28 melanoma; 1.38 µM with CAKI-1 renal; 2.2 µM with U251 CNS; 1.22 µM in the assay with HT29 colon; 1.43 µM in the assay on LOX IMVI melanoma. Further, the GI50 in the assay on SK-OV-3 ovarian was 13.5 µM; in the assay on HCC-2998 colon, 1.82 µM; in the assay with 786-0 renal, 1.16 µM; with NCI/ADR-RES ovarian, 2.26 µM. Moreover, the TGI in the assay with TK-10 renal was 3.48 µM; in the assay with SK-MEL-28 melanoma, 3.61 µM; with CAKI-1 renal, 2.77 µM; in the assay with U251 CNS, 6.85 µM; with HT29 colon, 3.43 µM; in the assay with LOX IMVI melanoma it was 2.96 µM. Also, the TGI is 26.8 µM with SK-OV-3 ovarian, 3.52 µM in the assay with HCC-2998 colon, 2.74 µM with 786-0 renal and 6.12 µM in the assay with NCI/ADR-RES ovarian.
On to `COc1ccc2nc3cc([N+](=O)[O-])ccc3c(NCCCCCN(C)C)c2c1`, for which the GI50 with SK-MEL-28 melanoma was 0.283 µM; with CAKI-1 renal, 0.306 µM; in the assay on U251 CNS it was 0.218 µM; with HT29 colon, 0.0643 µM; with LOX IMVI melanoma, 0.279 µM; in the assay on SK-OV-3 ovarian, 0.351 µM. The results for the GI50 in the assay on 786-0 renal and in the assay with NCI/ADR-RES ovarian were 0.15 µM and 2.13 µM, respectively. Moreover, the TGI in the assay with SK-MEL-28 melanoma was determined as 1.18 µM; in the assay on CAKI-1 renal it was 3.04 µM; in the assay with U251 CNS it was 2.64 µM; in the assay with HT29 colon, 0.38 µM; in the assay on LOX IMVI melanoma, 1.1 µM; with SK-OV-3 ovarian, 2.36 µM. Also, the TGI was found to be 1.07 µM with 786-0 renal and 13.5 µM in the assay with NCI/ADR-RES ovarian.
